From patent US20260365670A1, “EGFR INHIBITORS AND USES THEREOF” (DIZAL (JIANGSU) PHARMACEUTICAL CO., LTD., priority 2022, published 2026)
Where two headings read alike, the source gives them in different places.

What was measured:
[1] = target: T1, EGFR (C797S L858R) (Homo sapiens, UniProt P00533, C797S/L858R); test: Inhibition of EGFR (C797S L858R) biochemical enzymatic activity (HTRF); conditions: EGFR L858-C797S, 1 mM ATP, 1 h, room temperature, read-out: IC50 (nM) @L858-C797S
T1 construct: purchased signalchem
Summary of the method: (§1)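 HTRF kinase assay: each EGFR enzyme phosphorylated 1 μM biotinylated TK substrate with 1 mM ATP in buffer containing 5 mM MgCl2, 1 mM MnCl2, 0.01% CHAPS, 1 mM DTT, 0.5% DMSO. After 1 h at room temperature, EDTA detection mix stopped the reaction. IC50 came from a four-parameter logistic fit of the 665/615 nm ratio.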

[2] = system: Ba/F3 cells expressing EGFR mutations; test: Cell proliferation assay, Ba/F3 cells expressing EGFR mutations (CellTiter-Glo, 72 hours); assay type: cell-based; conditions: Mus musculus, BaF3, 72 h, CellTiter-Glo
Summary of the method: (§2)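 Ba/F3 cells (5000/well) and PC-9 cells (500/well, RPMI1640 with 10% FBS) were plated overnight and then dosed with a compound concentration series. Viable cells were read at day 0 (G0) and after treatment (G3). GI50 came from curve fits of G0-corrected proliferation relative to DMSO.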

[3] = target: T2, EGFR L858R (Homo sapiens, UniProt P00533, L858R); test: Inhibition of EGFR L858R biochemical enzymatic activity (HTRF); conditions: 1 mM ATP, 1 h, room temperature, read-out: IC50 (nM) @L858R
T2 construct: purchased Carna Bio
Summary of the method: as §1

[4] = target: T3, EGFR wild type (Homo sapiens, UniProt P00533); test: Inhibition of EGFR wild type biochemical enzymatic activity (HTRF); conditions: EGFR WT, 1 mM ATP, 1 h, room temperature, read-out: IC50 (nM) @WT
T3 construct: purchased Carna Bio
Summary of the method: as §1

[5] = system: PC-9; test: Cell proliferation assay, PC-9 cells (CellTiter-Glo, 72 hours); assay type: cell-based; conditions: Homo sapiens, PC-9, 72 h, PC9 cells, CellTiter-Glo, read-out: PC9 GI50
Summary of the method: as §2

[6] = system: A-431; test: Cell proliferation GI50, A-431 cells (Table 6); assay type: cell-based; conditions: Homo sapiens, A-431, A-431 cells
[7] = target: T4, EGFR Exon19Del (Homo sapiens, UniProt P00533, DEL746-750); test: Inhibition of EGFR Exon19Del biochemical enzymatic activity (HTRF); conditions: EGFR Del19, 1 mM ATP, 1 h, room temperature, read-out: IC50 @Del19
T4 construct: purchased Carna Bio
Summary of the method: as §1

[8] = target: T5, EGFR[T790M/C797S/L858R] (Homo sapiens, UniProt P00533, C797S/L858R/T790M); test: Inhibition of EGFR[T790M/C797S/L858R] biochemical enzymatic activity (HTRF); conditions: EGFR T790M-C797S-L858R, 1 mM ATP, 1 h, room temperature, read-out: IC50 (nM) @T790M- C797S - L858R
T5 construct: purchased Carna Bio
Summary of the method: as §1

[9] = target: T6, EGFR[T790M/C797S/d746-750] (Homo sapiens, UniProt P00533, C797S/DEL746-750/T790M); test: Inhibition of EGFR[T790M/C797S/d746-750] biochemical enzymatic activity (HTRF); conditions: EGFR T790M-C797S-Del19, 1 mM ATP, 1 h, room temperature, read-out: IC50 (nM) @T790M - C797S - Del19
T6 construct: purchased Carna Bio
Summary of the method: as §1

[10] = target: T7, EGFR (d746-750 C797S) (Homo sapiens, UniProt P00533, C797S/DEL746-750); test: Inhibition of EGFR (d746-750 C797S) biochemical enzymatic activity (HTRF); conditions: EGFR Del19-C797S, 1 mM ATP, 1 h, room temperature, read-out: IC50 (nM) @Del19-C797S
T7 construct: purchased signalchem
Summary of the method: as §1

[11] = target: T8, EGFR Exon19Del/T790M (Homo sapiens, UniProt P00533, DEL746-750/T790M); test: Inhibition of EGFR Exon19Del/T790M biochemical enzymatic activity (HTRF); conditions: EGFR Del19-T790M, 1 mM ATP, 1 h, room temperature, read-out: IC50 (nM) @Del19-T790M
T8 construct: purchased Carna Bio
Summary of the method: as §1

[12] = target: T9, EGFR L858R/T790M (Homo sapiens, UniProt P00533, L858R/T790M); test: Inhibition of EGFR L858R/T790M biochemical enzymatic activity (HTRF); conditions: EGFR L858R-T790M, 1 mM ATP, 1 h, room temperature, read-out: IC50 (nM) @L858R-T790M
T9 construct: purchased Carna Bio
Summary of the method: as §1

[13] = BaF3 cells, EGFR DEL19-C797S, read-out: DEL19-C797S/BaF3 GI50
[14] = BaF3 cells, EGFR DEL19-T790-C797S, read-out: DEL19-T790-C797S/BaF3 GI50
[15] = BaF3 cells, EGFR L858R, read-out: L858R/BaF3 GI50
[16] = BaF3 cells, EGFR L858R-C797S, read-out: L858R-C797S/BaF3 GI50
[17] = BaF3 cells, EGFR L858R-T790-C797S, read-out: L858R-T790-C797S/BaF3 GI50
[18] = BaF3 cells, EGFR L858R-T790M, read-out: L858R-T790M/BaF3 GI50
[19] = EGFR DEL19-T790M, read-out: DEL19-T790M GI50

T3 sequence (P00533 25-1210): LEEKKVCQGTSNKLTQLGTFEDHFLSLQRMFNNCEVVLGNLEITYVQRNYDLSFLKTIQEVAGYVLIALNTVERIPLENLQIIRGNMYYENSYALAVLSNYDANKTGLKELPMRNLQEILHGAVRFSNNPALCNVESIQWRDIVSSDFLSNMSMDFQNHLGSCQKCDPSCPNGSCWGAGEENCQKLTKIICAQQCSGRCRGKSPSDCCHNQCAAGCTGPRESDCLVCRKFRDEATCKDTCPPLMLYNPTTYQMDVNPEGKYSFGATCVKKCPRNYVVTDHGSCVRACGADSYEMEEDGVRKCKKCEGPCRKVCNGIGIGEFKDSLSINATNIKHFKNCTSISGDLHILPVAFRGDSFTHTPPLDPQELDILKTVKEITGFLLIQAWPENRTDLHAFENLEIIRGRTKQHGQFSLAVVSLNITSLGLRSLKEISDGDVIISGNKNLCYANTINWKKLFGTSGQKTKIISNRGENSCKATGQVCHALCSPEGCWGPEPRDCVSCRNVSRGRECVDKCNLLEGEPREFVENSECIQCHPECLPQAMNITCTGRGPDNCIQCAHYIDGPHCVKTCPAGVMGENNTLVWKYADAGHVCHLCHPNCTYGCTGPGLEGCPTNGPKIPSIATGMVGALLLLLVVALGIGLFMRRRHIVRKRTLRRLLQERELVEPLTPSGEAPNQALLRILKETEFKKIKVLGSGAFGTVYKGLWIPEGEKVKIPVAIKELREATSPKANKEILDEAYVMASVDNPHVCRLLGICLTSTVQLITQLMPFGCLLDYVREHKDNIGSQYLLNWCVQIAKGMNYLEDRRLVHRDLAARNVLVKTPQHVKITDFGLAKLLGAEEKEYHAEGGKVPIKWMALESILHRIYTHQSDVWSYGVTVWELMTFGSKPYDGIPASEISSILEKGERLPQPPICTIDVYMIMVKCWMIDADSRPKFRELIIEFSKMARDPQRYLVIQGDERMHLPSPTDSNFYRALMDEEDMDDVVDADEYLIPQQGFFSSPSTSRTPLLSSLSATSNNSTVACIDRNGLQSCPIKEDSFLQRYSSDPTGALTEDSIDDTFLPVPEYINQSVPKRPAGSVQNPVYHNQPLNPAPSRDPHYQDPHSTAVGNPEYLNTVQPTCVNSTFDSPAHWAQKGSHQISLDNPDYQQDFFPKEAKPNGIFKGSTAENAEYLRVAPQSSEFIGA
T1 sequence (P00533 25-1210 C797S/L858R): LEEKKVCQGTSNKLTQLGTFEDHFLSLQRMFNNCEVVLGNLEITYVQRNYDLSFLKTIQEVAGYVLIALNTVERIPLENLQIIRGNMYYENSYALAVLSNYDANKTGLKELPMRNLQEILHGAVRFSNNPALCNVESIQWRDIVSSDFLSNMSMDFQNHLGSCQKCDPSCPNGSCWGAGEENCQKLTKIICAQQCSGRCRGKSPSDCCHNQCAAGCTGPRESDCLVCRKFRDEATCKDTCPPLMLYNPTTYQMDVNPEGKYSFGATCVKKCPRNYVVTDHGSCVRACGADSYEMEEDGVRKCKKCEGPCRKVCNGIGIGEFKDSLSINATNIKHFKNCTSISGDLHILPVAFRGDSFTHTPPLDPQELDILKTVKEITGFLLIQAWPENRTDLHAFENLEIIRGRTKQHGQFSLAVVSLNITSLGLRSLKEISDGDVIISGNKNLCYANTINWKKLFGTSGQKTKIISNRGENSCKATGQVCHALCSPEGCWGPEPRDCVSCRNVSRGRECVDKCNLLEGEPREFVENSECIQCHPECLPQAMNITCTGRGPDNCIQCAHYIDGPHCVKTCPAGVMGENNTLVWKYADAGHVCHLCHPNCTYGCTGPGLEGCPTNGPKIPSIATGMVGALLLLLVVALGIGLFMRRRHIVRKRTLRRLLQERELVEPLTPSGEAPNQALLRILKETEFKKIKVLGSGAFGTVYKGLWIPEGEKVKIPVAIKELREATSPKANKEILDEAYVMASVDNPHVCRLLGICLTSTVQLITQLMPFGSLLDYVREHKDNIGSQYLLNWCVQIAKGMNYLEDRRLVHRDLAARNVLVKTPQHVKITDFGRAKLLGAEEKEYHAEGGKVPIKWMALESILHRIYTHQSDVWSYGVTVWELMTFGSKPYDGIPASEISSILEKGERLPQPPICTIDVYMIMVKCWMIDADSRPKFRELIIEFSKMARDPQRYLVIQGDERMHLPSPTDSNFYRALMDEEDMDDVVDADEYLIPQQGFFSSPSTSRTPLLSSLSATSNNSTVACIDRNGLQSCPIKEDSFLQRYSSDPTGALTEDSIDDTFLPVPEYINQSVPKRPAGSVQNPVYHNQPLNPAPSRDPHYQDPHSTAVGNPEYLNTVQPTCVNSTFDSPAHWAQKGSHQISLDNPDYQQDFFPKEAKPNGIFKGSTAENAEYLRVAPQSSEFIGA
T8 sequence (P00533 with tags, fused parts or gaps DEL746-750/T790M limits assumed): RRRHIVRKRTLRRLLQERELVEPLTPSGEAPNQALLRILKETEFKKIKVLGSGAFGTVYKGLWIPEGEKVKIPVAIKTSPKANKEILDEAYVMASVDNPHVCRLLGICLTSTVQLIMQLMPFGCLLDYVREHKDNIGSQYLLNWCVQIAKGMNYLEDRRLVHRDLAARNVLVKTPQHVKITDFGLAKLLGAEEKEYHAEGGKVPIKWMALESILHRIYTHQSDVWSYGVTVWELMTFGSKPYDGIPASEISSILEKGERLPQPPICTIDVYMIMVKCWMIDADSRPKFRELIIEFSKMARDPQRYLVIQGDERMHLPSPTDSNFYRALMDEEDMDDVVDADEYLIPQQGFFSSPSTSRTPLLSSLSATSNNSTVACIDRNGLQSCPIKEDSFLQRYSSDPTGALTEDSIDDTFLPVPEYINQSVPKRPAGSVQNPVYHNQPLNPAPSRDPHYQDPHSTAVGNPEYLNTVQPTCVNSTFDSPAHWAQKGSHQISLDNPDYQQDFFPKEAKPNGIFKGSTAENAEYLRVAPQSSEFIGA
T2 sequence (P00533 25-1210 L858R): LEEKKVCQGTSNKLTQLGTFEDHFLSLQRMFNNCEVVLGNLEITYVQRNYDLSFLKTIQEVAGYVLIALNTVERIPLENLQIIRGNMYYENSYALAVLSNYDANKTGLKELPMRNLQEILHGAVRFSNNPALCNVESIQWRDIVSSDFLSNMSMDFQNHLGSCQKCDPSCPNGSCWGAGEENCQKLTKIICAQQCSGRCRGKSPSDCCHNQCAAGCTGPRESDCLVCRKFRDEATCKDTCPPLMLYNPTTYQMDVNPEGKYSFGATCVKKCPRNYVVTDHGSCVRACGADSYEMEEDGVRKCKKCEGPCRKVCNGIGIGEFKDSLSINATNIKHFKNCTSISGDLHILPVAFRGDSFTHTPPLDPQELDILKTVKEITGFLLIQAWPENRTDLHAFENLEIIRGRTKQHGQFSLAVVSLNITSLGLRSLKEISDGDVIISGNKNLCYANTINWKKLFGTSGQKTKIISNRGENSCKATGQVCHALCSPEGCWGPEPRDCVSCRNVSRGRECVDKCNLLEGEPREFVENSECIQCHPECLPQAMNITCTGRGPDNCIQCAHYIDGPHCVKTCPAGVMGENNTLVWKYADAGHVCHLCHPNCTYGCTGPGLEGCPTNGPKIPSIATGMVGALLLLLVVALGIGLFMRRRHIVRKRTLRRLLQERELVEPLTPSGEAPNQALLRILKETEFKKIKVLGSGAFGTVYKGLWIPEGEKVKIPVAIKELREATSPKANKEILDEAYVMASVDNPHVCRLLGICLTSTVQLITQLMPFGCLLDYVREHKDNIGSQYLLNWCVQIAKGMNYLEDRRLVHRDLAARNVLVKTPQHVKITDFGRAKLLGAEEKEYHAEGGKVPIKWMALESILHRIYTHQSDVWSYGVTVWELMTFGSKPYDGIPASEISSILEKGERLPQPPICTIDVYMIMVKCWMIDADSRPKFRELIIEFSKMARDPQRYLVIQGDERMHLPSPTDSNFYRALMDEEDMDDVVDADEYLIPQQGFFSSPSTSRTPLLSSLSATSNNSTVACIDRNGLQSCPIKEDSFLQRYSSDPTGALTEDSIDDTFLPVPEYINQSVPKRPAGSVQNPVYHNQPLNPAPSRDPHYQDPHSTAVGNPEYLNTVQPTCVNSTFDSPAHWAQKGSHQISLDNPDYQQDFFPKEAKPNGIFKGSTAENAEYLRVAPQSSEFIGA
T6 sequence (P00533 with tags, fused parts or gaps DEL746-750/T790M/C797S limits assumed): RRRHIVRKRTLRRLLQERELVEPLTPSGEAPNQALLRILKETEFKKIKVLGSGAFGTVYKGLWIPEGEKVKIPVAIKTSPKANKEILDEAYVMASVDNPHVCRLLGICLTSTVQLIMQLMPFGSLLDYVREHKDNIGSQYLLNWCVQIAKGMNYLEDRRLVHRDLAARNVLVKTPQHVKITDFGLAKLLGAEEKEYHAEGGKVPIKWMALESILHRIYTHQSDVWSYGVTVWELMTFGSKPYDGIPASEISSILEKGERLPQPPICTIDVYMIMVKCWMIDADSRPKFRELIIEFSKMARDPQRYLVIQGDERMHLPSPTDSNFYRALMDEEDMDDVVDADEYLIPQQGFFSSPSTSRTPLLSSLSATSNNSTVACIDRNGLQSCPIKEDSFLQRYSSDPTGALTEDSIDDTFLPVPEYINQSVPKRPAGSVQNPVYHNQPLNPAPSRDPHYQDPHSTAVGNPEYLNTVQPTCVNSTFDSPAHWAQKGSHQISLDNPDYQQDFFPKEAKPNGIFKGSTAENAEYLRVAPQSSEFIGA

Structure (SMILES) | IC50 [1] [nM] | GI50 [2, 13] [nM] | GI50 [2, 14] [nM] | GI50 [2, 15] [nM] | GI50 [2, 16] [nM] | GI50 [2, 17] [nM] | GI50 [2, 18] [nM] | GI50 [2, 19] [nM] | IC50 [3] [nM] | IC50 [4] [nM] | GI50 [5] [nM] | GI50 [6] [nM] | IC50 [7] [nM] | IC50 [8] [nM] | IC50 [9] [nM] | IC50 [10] [nM] | IC50 [11] [nM] | IC50 [12] [nM]
C[C@@H]1CCCOc2c(cnn2C)-c2cc(cn(C)c2=O)C(=O)Nc2nc3ccc(N4CCC(N5CCOCC5)C4)cc3n2C1 (stereo partly drawn) [Example A28] | 93 | 2.4 | 4.7 | 4.5 | 16 | 3.6 | 9.4 | 6.7 | 174 | 4140 | 38 | 452 | 21 | 100 | 21 | 14 | 22 | 137
C[C@@H]1CCCOc2c(cnn2C)-c2cc(cn(C)c2=O)C(=O)Nc2nc3ccc(N4CCC(N5CCN(C)CC5)CC4)cc3n2C1 [Example A29] | 7.9 | 0.41 | 1 | 2.1 | 2.8 | 0.78 | 2.5 | 1.9 | 14 | 109 | 7.1 | 247 | 3.8 | 8.9 | 8.2 | 2.1 | 7.6 | 15
C[C@@H]1CCCOc2c(cnn2C)-c2cc(cn(C)c2=O)C(=O)Nc2nc3ccc(N4CCC(N5CCN(C)CC5)C4)cc3n2C1 (stereo partly drawn) [Example A33] | 6 | 0.4 | 0.58 | 1.1 | 2.2 | 2.3 | 3.4 | 3.2 | 7.3 | 22 | 4.8 | 366 | 3.1 | 5.2 | 3.1 | 2.1 | 3.4 | 5.8
C[C@@H]1CCCOc2c(cnn2C)-c2cc(cn(C)c2=O)C(=O)Nc2nc3ccc(N4CCC5(CCN(C)C5)CC4)cc3n2C1 [Example A35] | 1.8 | 0.38 | 0.5 | 0.53 | 1.7 | 1 | 3.4 | 1.6 | 1.5 | 2.7 | 3.7 | 215 | 1.1 | 2 | 2 | 0.84 | 1.9 | 2.2
C[C@@H]1CCCOc2c(cnn2C)-c2cc(cn(C)c2=O)C(=O)Nc2nc3ccc(N(C)CCN(C)C)cc3n2C1 [Example A36] | 14 | 2.1 | 6 | 5.1 | 5.9 | 4.7 | 23 | 7.8 | 30 | 193 | 14 | 591 | 3 | 4.9 | 2.4 | 2.1 | 2.5 | 8
C[C@@H]1CCCOc2c(cnn2C)-c2cc(cn(C)c2=O)C(=O)Nc2nc3ccc(N4CC(N(C)C)C4)cc3n2C1 [Example A37] | 13 | 0.7 | 3.3 | 3.2 | 3.8 | 2.5 | 10 | 5.5 | 40 | 281 | 4.3 | 166 | 3.4 | 2.3 | 1.2 | 1.7 | 1.4 | 6.5
C[C@@H]1CCCOc2c(cnn2C)-c2cc(cn(C)c2=O)C(=O)Nc2nc3ccc(N4CCC(N(C)C)C(F)C4)cc3n2C1 (stereo partly drawn) [Example A38] | 2.9 | 1.4 | 4.8 | 4.1 | 4.2 | 3.2 | 13 | 7.3 | 9.7 | 159 | 6.2 | 315 | 1.3 | 1.7 | 1.7 | 0.81 | 1.6 | 2.7
C[C@@H]1CCCOc2c(cnn2C)-c2cc(cn(C)c2=O)C(=O)Nc2nc3ccc(N4CCN(C5COC5)CC4)cc3n2C1 [Example A39] | 30 | 1.9 | 4.7 | 5.2 | 6.9 | 5.4 | 16 | 8.4 | 74 | 1520 | 7.6 | 290 | 5.9 | 8.2 | 5.1 | 2.8 | 5 | 14
